# In patent US8962263B2, “Methods and compositions for detecting the activation state of multiple proteins in single cells” (The Board of Trustees of the Leland Stanford Junior …, priority 2001, dated 2015):
# Experiments:
# [1] = tested on: CD19+ human B cells
# Method: Apoptosis was measured by annexin-V binding detected by flow cytometry, and gated for CD19+, cells. […] Apoptosis was measured by annexin-V binding assay.
# Antibody cross-linking experiments were performed using mAbs to anti-ICAM-1, anti-ICAM-2, anti-ICAM-3, anti-CD43, or anti-CD44 that recognizes the N-terminal region (extracellular domain) at 10 μg/ml. Spin dialysis (Biorad) was used for buffer exchange of azide containing antibodies (0.01%) to phosphate buffered saline buffer pH 7.4. Anti-mouse IgG (Sigma) was used as a control antibody in cross-linking experiments. 1×10^6 Jurkat, 1×10^6 BaF3, or 1×10^7 PBMC cells were serum starved for 4 hours respectively (except PBMC). Cells were incubated with either mAb (10 μg/ml) or mouse IgG (10 μg/ml) at 37° C. for the indicated time. Time points began post serum starvation to attenuate most of the signaling pathways or as indicated. […] Cells extracts were taken and subjected to either immunoprecipitation or immunoblotting were appropriate. Primary cells were subjected to apoptotic treatment followed by preparation for flow cytometry. GTPγS was made cell permeant by pre-incubating compound with Fugene (Roche Biochemicals) in a 1:4 molar ratio for 30 minutes at 25° C. prior to being applied to cells.
# [2] = tested on: Jurkat T cells; test: anti-Fas induced apoptosis in ICAM-2 crosslinked Jurkat cells, annexin-V binding assay; type: cell-based, human; conditions: inhibitor 10 μM 1 hour, anti-Fas 50 ng/ml 8 hours
# Method: A) ICAM-2, crosslinking induced AKT activity in Jurkat T cells and subsequent phosphorylation of GSK3, FKHR, and AFX as a function of time. Serum starved Jurkat T cells were incubated with either isotype control or anti-human ICAM-2, (10, μg/ml) for the indicated times. AKT kinase activity was determined as described. Immunoblot analysis verified AKT dual phosphorylation, FKHR and GSK3 phosphorylation, and BAD phosphorylation as a function of ICAM-2, crosslinking. B) ICAM-2 crosslinking induces AKT activity in BaF3, pre-B cells. […] ICAM-2, was crosslinked on 106, Jurkat T cells using an ICAM-2, mAb (10, μg/ml) 30, minutes prior to treatment with staurosporine (+) or DMSO vehicle (−). Apoptosis was determined by flow cytometry using annexin-V binding assay. […] Cells were assessed for apoptosis by annexin-V binding assay. […]
# Apoptosis was determined either by counting pyknotic nuclei, annexin-V binding by flow cytometry, or TUNEL BrdU staining by flow cytometry as indicated. Apoptosis was induced either by staurosporine (1 μm), treatment with anti-mouse Fas (5 μq/ml Santa Cruz Biotechnology (SCB), anti-human Fas ([…]) as indicated in appropriate experiment, IL-3 withdrawal-(24 hrs) or as indicated. For pyknolic nuclei count, NIH3T3 cells were grown on glass coverslips and assayed for apoptosis. Suspension cells were analyzed by nuclear staining with 25 μM acridine orange/25 μm ethidium bromide or 5 μg/ml Hoechst 33342 (Molecular Probes, Eugene, Oreg.). Apoptosis was identified by the presence of characteristic pyknotic nuclei as described (Jacobson and Raff, 1995). At least 5 individual fields were photographed and counted using a Zeiss axioscope fluorescence microscope. […] The cells were trypsinized and viable cells counted following trypan blue staining. Untreated cells were counted at the time of treatment. % survival represents (number of viable cells post-treatment)/(number of viable cells pretreatment). […] Flow cytometry analysis was performed on a BD FACSCalibur machine with CELLQuest and analyzed using FlowJo software (Tree Star).
# [3] = tested on: p44/42 MAPK; test: intracellular phospho-p44/42 MAPK by flow cytometry in ICAM-2 treated Jurkat cells; type: cell-based, human; conditions: chemical agents 10 μM, EDTA 1 mM; mAbs titrated prior to ICAM-2
# From the text: A) Mean fluorescent intensity values (MFI) of ICAM-2-FITC (adhesion) and mAb24-Alexa633, (LFA-1, activation) in treated Jurkat cells (as above). Control unstimulated and/or compound pretreated values were subtracted. B) Top panel: Intracellular phospho-p44/42, MAPK detection as a function of ICAM-2, dose in Jurkat cells by flow cytometry (see Material and Methods). Mean fluorescent intensity values (MFI) were plotted±standard deviation (SD). Bottom panel: ICAM-2, treated Jurkat cells were stained for intracellular phospho-p44/42, MAPK as described above. mAbs to β2, and αL, integrins (10, μg/ml, 10, minutes) were titrated prior to ICAM-2, treatment as indicated and plotted for MFI±SD. C) ICAM-2, induced p44/42, MAPK activity is blocked by β2, and αL, integrin antibodies as determined by a p44/42 MAPK kinase assay. Conditions for induction and inhibition are as described above. Recombinant active p44/42, MAPK served as an internal positive control (denoted by “+”). D) Inhibition and activation profile for intracellular phospho-p44/42, by flow cytometry in the presences of chemical agents (10, μM), EDTA (1, mM), or PMA, ionomycin and ICAM-2, stimulus (as indicated above). MFI values±SD are plotted.
# (§1) Intracellular and extracellular staining was performed as described (Perez and Nolan, 2002). Intracellular probes for active kinases were made by conjugating phospho-specific antibodies to the ALEXA FLUOR® dye series as described and used in phospho-protein optimized conditions (Perez and Nolan, 2002). Kinetic analyses was performed by direct application of fixation buffer in time synchronized 96-wells maintained at 37° C. Intracellular actin and microtubule staining was performed using phalloidin-Alexa633 and taxol-Alexa546 dyes (Molecular Probes). Adhesion and clustering assays were performed using ICAM-2-FITC as described in text. LFA-1 activation was assessed by either mAb24-Alexa633 or mAb24-Alexa546 conjugate, surface stained at 37° C. Flow cytometry data are representative of 3 independent experiments of 10^6 cells/sample. 10-50,000 events were collected and manually calibrated on a FACSCalibur™ machine. Data plotted in bar graph format is expressed as geometric mean fluorescence intensity (MFI) and normalized for isotype controls. Log ratios are defined as the MFI of stimulus to the MFI of unstimulated cells. Data was analyzed using Flowjo™ software (Treestar).
# [4] = tested on: ezrin; test: phosphotyrosine-protein based elisa for ezrin tyrosine phosphorylation upon ICAM-2 ligation; type: cell-based, human; conditions: Jurkat cells
# Method: A) Expression levels of ICAM-2, vary across cell lines of different origins. Quantitative flow cytometry analysis was performed to assess the number of ICAM-2 surface molecules across transformed and untransformed fibroblasts, lymphocytes of T-cell and different B-cell differentiation states and myeloid lineages (see Material and Methods for elaboration). The number of surface molecules/cell is expressed as the mean (bar)+/−SD of triplicate experiments. B) Crosslinking of endogenous ICAM-2, induces ezrin tyrosine phosphorylation and enhanced ICAM-2, interaction. Jurkat cells were crosslinked for ICAM-2 using monoclonal antibody for the indicated times and subjected to immunoprecipitation/immunoblotting as indicated. C) Inhibition of ezrin phosphotyrosine by chemical inhibitors of src and Rho-dependent kinases. D) Ezrin phosphorylation and enhanced interaction with the p85, subunit of PI3K as a function of ICAM-2. Determined as described above. E) PDK-1, activity as a function of ICAM-2, ligation, as described above). F) PI3K and AKT localize to the membrane as a function of ICAM-2, ligation. Membrane/cytosolic fractionation was performed on ICAM-2, ligated Jurkat cells as a function of time and subjected to immunoblotting for PI3K and AKT.
# In order to identify upstream kineses capable of tyrosine phosphorylating ezrin as a function of ICAM-2 ligation, we developed a phosphotyrosine-protein based elisa to screen for the inhibition of ezrin tyrosine phosphorylation in vivo by various known inhibitors of protein kineses (Perez and Nolan, manuscript in preparation). […] Given the design of the screen to detect tyrosine residue phosphorylation, we speculate that activation of Rho-dependent processes may be a prerequisite for ezrin to be tyrosine phosphorylated by src (elaborated below).
# [5] = tested on: LFA-1; test: LFA-1 activation by mAb24-Alexa633 staining, flow cytometry; type: cell-based, human; conditions: Jurkat cells; agents 10 μM 30 min, PMA 1 μg/ml, prior to ICAM-2 10 μg/ml 30 min
# Method: A) Confocal microscopy of actin and microtubule architecture upon ICAM-2, stimulus (10, μg/ml, 30, min) in Jurkat cells. Actin was stained by phalloidin-alexa633, and tubulin by taxol-alexa546. Inserts display enlarged cell image of representative treatment B) Flow cytometric staining for actin and microtubules as described above. C) Left: Fluorescence topography analysis of ICAM-2-FITC (1 μg/ml, time as indicated) surface distribution. Intensity color gradient depicts high and low fluorescent intensity values. Right: Confocal microscopy of ICAM-2-FITC surface binding (10 μg/ml, 30, min) and anti-β2-alexa568, (clone CTB104). D) Staining for ICAM-2-FITC surface binding (fluorescence intensity) and surface distribution (fluorescence pulse) in cytochalisin D treated Jurkat cells at 37° C. and 4° C. by flow cytometry. E) Values for ICAM-2-FITC fluorescence intensity per time-of-flight per cell as described in text. F) Flow cytometric staining for LFA-1 activation by mAb24-alexa633. Stimuli as indicated (10, μM, 30, min), PMA (1, μg/ml) prior to ICAM-2, stimulation (10, μg/ml, 30, min). Staining was performed at 37° C. G) Mean fluorescence intensity (MFI) values of mAb24-633, and ICAM-2, cluster values, computed as described above, as a function of time.
# as §1
# [6] = target: T1, cell surface LFA-1 (Homo sapiens, UniProt P20701); test: ICAM-2-FITC surface binding on Jurkat cells by flow cytometry (single cell binding measurements); conditions: cytochalisin D treated Jurkat cells
# T1 construct: within the physiological context of cell surface LFA-1; endogenous in cells; host or cells: Jurkat T cells
# T1 sequence (P20701 26-1170): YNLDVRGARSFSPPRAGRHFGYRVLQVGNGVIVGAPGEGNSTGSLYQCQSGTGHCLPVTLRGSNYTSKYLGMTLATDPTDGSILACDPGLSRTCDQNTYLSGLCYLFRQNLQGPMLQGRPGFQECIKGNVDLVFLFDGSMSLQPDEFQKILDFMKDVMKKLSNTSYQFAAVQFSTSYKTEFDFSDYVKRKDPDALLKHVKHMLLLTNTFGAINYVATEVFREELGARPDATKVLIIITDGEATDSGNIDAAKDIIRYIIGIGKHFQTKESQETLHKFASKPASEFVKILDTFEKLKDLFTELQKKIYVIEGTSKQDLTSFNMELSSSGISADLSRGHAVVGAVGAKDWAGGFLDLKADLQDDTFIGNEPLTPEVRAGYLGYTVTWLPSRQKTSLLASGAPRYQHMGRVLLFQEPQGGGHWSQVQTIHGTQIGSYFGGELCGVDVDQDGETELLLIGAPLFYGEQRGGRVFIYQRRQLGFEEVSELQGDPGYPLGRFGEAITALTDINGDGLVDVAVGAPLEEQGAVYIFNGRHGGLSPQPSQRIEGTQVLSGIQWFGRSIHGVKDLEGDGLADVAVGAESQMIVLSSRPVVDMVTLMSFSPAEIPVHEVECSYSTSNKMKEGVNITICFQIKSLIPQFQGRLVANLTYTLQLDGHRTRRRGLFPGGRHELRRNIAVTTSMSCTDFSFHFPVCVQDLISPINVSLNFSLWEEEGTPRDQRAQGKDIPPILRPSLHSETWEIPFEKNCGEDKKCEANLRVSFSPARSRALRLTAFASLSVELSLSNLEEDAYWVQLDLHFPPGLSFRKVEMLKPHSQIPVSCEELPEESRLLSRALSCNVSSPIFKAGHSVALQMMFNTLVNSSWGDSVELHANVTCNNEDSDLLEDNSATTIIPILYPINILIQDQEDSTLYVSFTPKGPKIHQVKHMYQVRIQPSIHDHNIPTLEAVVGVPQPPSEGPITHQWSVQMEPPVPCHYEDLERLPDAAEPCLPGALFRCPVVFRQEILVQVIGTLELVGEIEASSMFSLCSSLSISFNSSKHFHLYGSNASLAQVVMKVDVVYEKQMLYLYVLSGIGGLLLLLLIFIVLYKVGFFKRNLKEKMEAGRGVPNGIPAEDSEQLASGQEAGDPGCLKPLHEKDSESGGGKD
# T1 sequence (P05107 23-769 partner): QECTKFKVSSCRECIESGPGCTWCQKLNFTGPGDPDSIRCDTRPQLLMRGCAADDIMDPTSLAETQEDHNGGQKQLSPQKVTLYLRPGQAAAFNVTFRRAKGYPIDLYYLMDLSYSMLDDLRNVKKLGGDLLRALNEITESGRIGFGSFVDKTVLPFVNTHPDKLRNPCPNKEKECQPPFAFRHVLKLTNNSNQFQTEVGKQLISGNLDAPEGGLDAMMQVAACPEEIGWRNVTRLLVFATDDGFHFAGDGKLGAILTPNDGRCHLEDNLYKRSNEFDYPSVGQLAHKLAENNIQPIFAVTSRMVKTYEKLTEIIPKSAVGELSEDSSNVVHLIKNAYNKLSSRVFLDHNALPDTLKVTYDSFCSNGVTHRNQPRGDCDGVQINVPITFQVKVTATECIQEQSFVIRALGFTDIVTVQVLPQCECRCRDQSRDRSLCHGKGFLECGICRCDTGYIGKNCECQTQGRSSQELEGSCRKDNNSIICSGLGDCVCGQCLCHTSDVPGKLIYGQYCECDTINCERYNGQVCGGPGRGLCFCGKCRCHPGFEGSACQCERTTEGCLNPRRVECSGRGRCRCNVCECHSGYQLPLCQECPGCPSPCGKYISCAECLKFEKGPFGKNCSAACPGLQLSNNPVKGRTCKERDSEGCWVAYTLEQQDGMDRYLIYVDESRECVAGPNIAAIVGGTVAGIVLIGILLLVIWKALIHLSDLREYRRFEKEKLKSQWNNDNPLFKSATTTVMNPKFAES
# Method: A) Purified human ICAM-2, from retrovirally transduced NIH3T3, (see materials and methods) was tested for purity, size, and aggregate formation by native gel electrophoresis and gel filtration. Analysis of purified ICAM-2, from two different preps and ICAM2-FC from NSO cells. Molecular weight was calculated using relative distance migration from a molecular weight standard. Concentration was determined using serial dilutions of BSA as a standard. […] B) ICAM-2, ligand binding to cell surface as a function of time. 5×10^6, unstimulated and PMA stimulated (1, μg/ml, 30, min) Jurkat T cells were incubated with ICAM-2-FITC or LFA-1-FITC antibody (1, μg/ml) and subjected to time dependent flow cytometry. Mean fluorescence intensity was plotted per time of a gated homogenous cell population. Flow rate was maintained at 200-300, cells/second, with fluorescence intensity values acquired at 10, millisecond intervals for 1200, seconds. C) Flow cytometric analysis of ICAM-2-FITC and a-LFA-1-FITC surface binding on cytochalisin D treated (10, μM, 30, min) Jurkat cells at 37° C. and 4° C. D) Curve fit analysis of ICAM-2-FITC binding per 10^4, cells. Jurkat cells were incubated with ICAM-2-FITC at 37° C. for 30, min at indicated concentrations in 50, μL volume. Cells were washed 1×, and analyzed for mean fluorescent intensity (MFI) of 10^4, cells. Percent ICAM-2-FITC bound was calculated from the following equation: 100×[(MFI[×]−MFIunstained)/(MFI[saturated]−MFIunstained)] where [×]=ICAM-2-FITC concentration and [saturated]=concentration that saturated binding. Values were fit to the equation Y=m1*M0/(m2+M0) (see materials and methods).
# Full length ICAM2 cDNA was obtained from Jurkat cells and cloned into retroviral vector PBM-Z-IN at the BamHI/Sal1 site as described (Perez et al., 2002). Human ICAM-2 was overexpressed in NIH3T3 cells by retroviral infection and harvested by immunoaffinity chromatography. ICAM-2 was affinity purified using a two step lysing procedure and subsequent purification on an anti-ICAM-2 solid support. […] Batch lysate of harvested supernatant was performed (4° C., for 2 hrs), and washed 4 times in buffer C (0.1% Tween-20, PBS pH 7.4). ICAM-2 protein was eluted by 4.5 M NaCl (in Tris pH 6.8), dialyzed overnight (in PBS pH 7.4, 0.001% azide, 0.01% glycerol, 4° C.), concentrated using size exclusion spin chromatography and stabilized using 0.01% glycerol. Anti-ICAM-2 solid support was re-equilibrated in buffer C, stored in 0.001% thimerosol and re-used up to 3 times. Purity was >98% as assessed by coomasie gel. […] Gel imaging was performed on a VersaDoc machine (Biorad) and analyzed using Quantity One quantitation software (Biorad). […]
Molecule,apoptosis in primary cells on incubation with compound [1],ICAM-2 crosslinking protection against Fas induced apoptosis [2],effect on ICAM-2 induced p44/42 MAPK phosphorylation [3],tyrosine phosphorylation of ezrin [4],LFA-1 activation (mAb24 binding) [5],LFA-1 receptor clustering and ICAM-2 binding [6]
Nc1nc2c(ncn2[C@@H]2O[C@H](COP(=O)(O)OP(=O)(O)OP(O)(O)=S)[C@@H](O)[C@H]2O)c(=O)[nH]1 [GTPγS],induced apoptosis,abrogated,,,,
CO[C@H]1[C@@H](OC)C[C@H](C)[C@@H](OC)C2=CC(=O)C=C(NC(=O)/C(C)=C/C=C\[C@H](OC)[C@@H](OC(N)=O)/C(C)=C/[C@@H]1C)C2=O [herbimycin A],induced apoptosis,abrogated,no effect,inhibit tyrosine phosphorylation of ezrin,,
cytochalisin D,,,diminished,,attenuated,enhanced LFA-1 receptor clustering and subsequent ICAM-2 binding
